In patent publication US20040048827A1, “S-adenosylmethionine and derivatives thereof for the treatment and prevention of alzheimer's disease” (priority 2000, published 2004):
“Also recorded” adds a separate entry of the source.

Experiments:
Notch1 gene = test: RT-PCR expression of Notch1 gene in SK-N-SH cells; assay type: cell-based, human; conditions: SAM in DM, 48 and 96 hours of culture
Protocol: (§1) SK-N-SH human neuroblastoma cell line was cultured, respectively, in HAM F14 (14) medium supplemented with 8-% foetal calf serum (GM), in F14 medium supplemented with 1% foetal calf serum and 10 μM retinopic acid (DM) and in DM, in the presence of 100 μM SAM. The cultures were re-fed every second day with the appropriate medium. The times indicate-are referred-to medium change as O-day.
(§2) Total RNA extraction was carried out using the acidified phenol procedure. For the expression studies by RT-PCR a reverse transcription was performed with 1 μg of total RNA using 50 pmol of oligo-d(T>)16 with 50 units of M-MuLV reverse transcriptase at 42° C. for one hour, followed by heat inactivation at 94° C. for 5 minutes. […] The subsequent amplification reactions were carried out for 20 to 30 cycles (1′ at 94° C., 1′ at annealing temperature, 1′30″ at 72° C.). The use of β-actin as internal standard allowed to control the processing of equal amount samples.
(§3) Aliquots of the PCR products (15 μl) were examined by electrophoresis in 1.5% agarose gel. Each gel was scanned by a CCD camera and acquired on a computerised densitometer. The specificity of the fragments was assessed by restriction analysis.

1-40 β-amyloid peptide = test: ELISA of 1-40 β-amyloid peptide production in SK-N-SH cell culture supernatants; assay type: cell-based, human; conditions: SAM in DM vs DM, supernatants after 96 and 120 hours, normalised to cell protein
Protocol: as §1
Cell culture supernatants were collected and frozen after 96 and 120 hours from the beginning of the culture. Successively they were concentrated using Amicon micro-concentrators according to the manufacturer instructions. 100 μl of concentrated medium were used to perform the immunoassay employing, according to the manufacturer instructions, the Biosource International kit for the detection of 1-40 amyloid. The amount of β-amyloid was normalised to the concentration of the proteins extracted from the corresponding cell lysates.

APP = test: Western blot of APP in SK-N-SH cells; assay type: cell-based, human; conditions: GM, DM, DM with 100 μM SAM, 120 hours of culture
Protocol: as §1
(§4) Detergent lysates were prepared from SK-N-SH cells in the presence of protease inhibitors (leupeptin, pepstatin, PMSF, 5 μg/ml each); protein extracts were performed after 5 days of culture in either GM or DM or DM supplemented with 100 μM SAM.
(§5) 10 μg of each protein extract were run on 8% PAGE for APP analysis and on 12% PAGE for PS1 analysis, and then blotted on nitrocellulose. APP was detected by a monoclonal antibody 22C11 (Boerhinger Mannheim) recognising three major bands at 116, 110, 106 KD. PS1 was detected by a monoclonal antibody (MAB1563 Chemicon) recognising a 31 KD band.

presenilin-1 protein = test: Western blot of presenilin-1 protein in SK-N-SH cells; assay type: cell-based, human; conditions: DM with 100 μM SAM, 120 hours (5 days) of culture
Protocol: as §1, §4, §5

Adam 17 gene = test: RT-PCR expression of Adam 17 (α-secretase) gene in SK-N-SH cells; assay type: cell-based, human; conditions: SAM in DM, 48 and 96 hours of culture
Protocol: as §1, §2, §3

[1] = test system: β-amyloid protein precursor (APP) gene; test: RT-PCR expression of β-amyloid protein precursor gene in SK-N-SH cells; assay type: cell-based, human
Protocol: as §1, §2, §3

[2] = test system: SK-N-SH human neuroblastoma cells; test: HPLC assay of S-adenosylmethionine passage into the cells; assay type: in vitro ADME
Protocol: as §1
Cell cultures were rinsed twice with phosphate buffered saline and frozen at −80° C. After thawing cells were scraped into 1 ml of deionized water and sonified for 15 seconds in ice. The macromolecules were precipitated from 1.5 M PCA at 4° C. for 1 hour adjusting the pH at 4-5 with KOH and then centrifuged for 15 minutes at 9000×g. The supernatants were freeze-dried. The HPLC measurements were carried out using a Varian HPLC System. The samples were dissolved in water and injected onto reverse-phase column (C-18) using a water-acetonitrile mobile-phase.

presenilin-2 (PS2) gene = test: RT-PCR expression of presenilin-2 gene in SK-N-SH cells; assay type: cell-based, human
Protocol: as §1, §2, §3

presenilin-1 (PS1) gene = test: RT-PCR expression of presenilin-1 gene in SK-N-SH cells; assay type: cell-based, human
Protocol: as §1, §2, §3

β-secretase gene = test: RT-PCR expression of β-secretase gene in SK-N-SH cells; assay type: cell-based, human
Protocol: as §1, §2, §3

Adam 10 gene = test: RT-PCR expression of Adam 10 (α-secretase) gene in SK-N-SH cells; assay type: cell-based, human; conditions: SAM in DM, 48 and 96 hours of culture (signal apparent only at 48 hours)
Protocol: as §1, §2, §3

[3] = DM with 100 μM SAM, 96 hours, compared to 96 hours without SAM
[4] = SK-N-SH cells, administration into the cell culture, RT-PCR

Compound: C[S+](CC[C@H](N)C(=O)O)C[C@H]1O[C@@H](n2cnc3c(N)ncnc32)[C@H](O)[C@@H]1O (stereo partly drawn) [SAM, S-adenosylmethionine]
- Notch1 gene expression (Notch1 gene): comparable to that observed in GM at 48 hours; also recorded: does not modify
- Notch1 gene expression (Notch1 gene; listed as S-adenosylmethionine): increased
- 1-40 β-amyloid peptide production (1-40 β-amyloid peptide): reduces the same remarkably
- 1-40 β-amyloid peptide production (1-40 β-amyloid peptide; listed as S-adenosylmethionine): reduced
- APP isoforms level (Western blot) (APP): did not change
- presenilin-1 protein synthesis (Western blot) (presenilin-1 protein): marked reduction
- Adam 17 gene expression (Adam 17 gene): over-expression
- Adam 17 gene expression (Adam 17 gene; listed as S-adenosylmethionine): increased
- APP gene expression at 48 hours ([1]; DM with 100 μM SAM, 48 hours): accelerate the gene expression
- APP gene expression at 96 hours [1, 3]: did not increase and resulted inhibited
- SAM in treated cell lysate relative to endogenous SAM [2]: 6 fold
- PS2 gene expression at 48 hours (presenilin-2 (PS2) gene; DM with 100 μM SAM, 48 hours): accelerate the gene expression
- PS2 gene expression at 96 hours (presenilin-2 (PS2) gene; [3]): did not increase and resulted inhibited
- PS1 gene expression at 48 hours (presenilin-1 (PS1) gene; DM with 100 μM SAM, 48 hours): accelerate the gene expression
- PS1 gene expression at 96 hours (presenilin-1 (PS1) gene; [3]): markedly down-regulated
- β-secretase gene expression at 48 hours (β-secretase gene; DM with 100 μM SAM, 48 hours): accelerate the gene expression
- β-secretase gene expression at 96 hours (β-secretase gene; [3]): did not increase and resulted inhibited
- Adam 10 gene expression (Adam 10 gene): the same as that detectable in DM
- Adam 10 gene expression (Adam 10 gene; listed as S-adenosylmethionine): increased

Compound: S-adenosylmethionine disulfonate
- presenilin-1 protein synthesis (Western blot) (presenilin-1 protein): dramatic decrease
- β-amyloid protein precursor gene expression [1, 4]: block of the expression increase
- presenilin-2 gene expression (presenilin-2 (PS2) gene; [4]): block of the expression increase
- presenilin-1 gene expression (presenilin-1 (PS1) gene; [4]): remarkable repression
- β-secretase gene expression (β-secretase gene; [4]): block of the expression increase
